ChEMBL document CHEMBL1201862, “PubChem BioAssay data set” (2004)
Blank lines part the entries; values can stand above or below the molecule they belong to. Active and inactive are the calls of the source.

Tests used:
Escherichia coli [1] = test: microbe, parasite or virus in culture
[2] = ADAM10 inhibitors, peptide cleavage, dose response, biochemical, QFRET (AID 743254);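 note: ADAM10 enzyme with the DM2 quenched FRET peptide as substrate; EDANS fluorescence gain as the protease cuts the substrate; inhibitor potency against ADAM10 proteolytic activity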
[3] = CEM21 lymphoblast cell cytotoxicity, dose response, cytotoxicity control for viral fusion inhibitor project, CellTiter-Glo luminescence, cherry-picked (AID 652042); assay type: functional, cell-based;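 note: potency for signal decrease meaning cytotoxicity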
[4] = off-target signal loss in HeLa-CEM21 co-culture – HeLa F-luc CTL cells, cherry-picked, counter-screen for HIV-1 Env fusion inhibitor project, dose response (AID 652040); assay type: functional, cell-based;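 note: potency for signal decrease marking cytotoxic or nonspecific inhibition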
[5] = inhibitors of clade B AD8 Env fusion, dose response, cell-based, cherry-pick (AID 652062); assay type: functional;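 note: luciferase signal from cell-cell fusion driven by HIV-1 clade B AD8 Env; potency is for inhibitors of fusion seen as a drop in luminescence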
INS1 = test: beta cell apoptosis inhibitors, cytokine rescue, dose response, luminescence, retest (AID 449756); assay type: functional, cell-based; settings: Rattus norvegicus;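 note: cell death triggered by IL-1 beta plus TNF-alpha plus IFN-gamma mixture; protective hits raise ATP signal compared with cytokine alone wells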
CAAX prenyl protease 2 = CAAX prenyl protease 2 (Homo sapiens, UniProt Q9Y256); test: human Rce1 protease inhibitors, dose response, biochemical, yeast membranes, quenched-peptide fluorescence, cherry-pick (AID 588849)
[6] = inhibitors of HIV Env-driven cell fusion, dose response, cherry-pick (AID 652057); assay type: functional, cell-based
[7] = ZM109 Env clade C HIV-1 fusion inhibitors, dose response, HeLa effector, CEM target cells, luciferase, cherry-pick (AID 652058); assay type: functional, cell-based
[8] = biological target: Disintegrin and metalloproteinase domain-containing protein 17 (Homo sapiens, UniProt P78536); test: ADAM17 protease inhibitors, dose response, counter-screen for ADAM10 exosite inhibitor project, biochemical, quenched FRET substrate (AID 743253)
Escherichia coli [9] = test: microbe, parasite or virus in culture; remark: listed apart in the source
[10] = biological target: Latent membrane protein 1 (Human herpesvirus 4 (strain B95-8), UniProt P03230); test: TES1-eGFP NF-kB reporter inhibition versus Tet-On dsRED, dose response, selectivity assay for LMP1 NF-kB inhibitor project, imaging, HEK293T, dual-color eGFP/dsRED, cherry-picks (AID 588398); assay type: functional, cell-based
A-375 = test: MITF: Counter assay: A375 proliferation Measured in Cell-Based System Using Plate Reader - 2084-03_Inhibitor_Dose_DryPowder_Activity. [Related pubchem assays (depositor defined):AID488944]; assay type: functional; settings: Homo sapiens
[11] = biological target: T1, Microphthalmia-associated transcription factor (Homo sapiens, UniProt O75030); test: TRPM1 promoter luciferase signal decrease, dose response, MITF inhibitor project, cell-based, SK-MEL-5, cherry-picked, set 3 (AID 493073); assay type: functional
T1 sequence (O75030 whole entry): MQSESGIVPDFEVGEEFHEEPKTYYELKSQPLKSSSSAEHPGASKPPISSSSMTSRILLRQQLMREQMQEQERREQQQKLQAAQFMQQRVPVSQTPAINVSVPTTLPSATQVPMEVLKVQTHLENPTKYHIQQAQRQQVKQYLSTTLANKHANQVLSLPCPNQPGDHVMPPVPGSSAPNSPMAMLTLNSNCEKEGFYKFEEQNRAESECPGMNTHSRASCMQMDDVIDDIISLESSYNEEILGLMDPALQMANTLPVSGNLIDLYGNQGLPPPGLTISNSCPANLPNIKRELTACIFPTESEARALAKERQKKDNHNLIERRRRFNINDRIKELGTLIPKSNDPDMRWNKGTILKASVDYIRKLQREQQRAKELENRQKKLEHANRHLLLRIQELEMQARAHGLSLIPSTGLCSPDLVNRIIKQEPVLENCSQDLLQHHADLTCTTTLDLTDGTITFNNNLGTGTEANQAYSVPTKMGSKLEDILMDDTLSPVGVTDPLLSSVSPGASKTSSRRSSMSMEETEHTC

[12] = growth suppression of beta-catenin-knockout colon cells, dose response, cell-based, HCT116, human colon tumor (AID 1045); assay type: functional;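 note: HCT116 colon tumor cells with beta catenin knocked out; cells exposed to compound for 60 hours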
[13] = growth suppression of PTEN-null colon cells, dose response, cell-based, HCT116 PTEN knockout (AID 1047); assay type: functional;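 note: HCT116 colon tumor cells with PTEN knocked out; cells exposed to compound for 60 hours before readout; potency for loss of cell viability measured by luminescence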
CHO = test: cytotoxicity in TLR9-MyD88 CHO cells, dose response, cytotoxicity control for TLR9-MyD88 binding inhibitor project, cell-based, luminescence (AID 588339); assay type: functional, hamster; settings: Cricetulus griseus;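 note: CHO cells stably coexpressing TLR9 and MyD88 fusions from primary screen; compound exposure lasted 48 hours before viability readout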

Chain of CAAX prenyl protease 2 (Q9Y256 whole entry, the tested form may be a part): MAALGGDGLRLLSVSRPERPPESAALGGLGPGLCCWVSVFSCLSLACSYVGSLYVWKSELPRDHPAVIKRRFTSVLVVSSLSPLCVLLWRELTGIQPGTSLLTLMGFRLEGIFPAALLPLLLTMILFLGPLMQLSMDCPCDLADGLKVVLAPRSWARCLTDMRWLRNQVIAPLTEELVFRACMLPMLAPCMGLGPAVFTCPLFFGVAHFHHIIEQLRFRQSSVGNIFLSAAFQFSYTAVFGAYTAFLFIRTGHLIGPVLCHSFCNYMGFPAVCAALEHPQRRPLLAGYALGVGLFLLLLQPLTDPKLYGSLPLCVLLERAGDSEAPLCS
Chain of Latent membrane protein 1 (P03230 whole entry): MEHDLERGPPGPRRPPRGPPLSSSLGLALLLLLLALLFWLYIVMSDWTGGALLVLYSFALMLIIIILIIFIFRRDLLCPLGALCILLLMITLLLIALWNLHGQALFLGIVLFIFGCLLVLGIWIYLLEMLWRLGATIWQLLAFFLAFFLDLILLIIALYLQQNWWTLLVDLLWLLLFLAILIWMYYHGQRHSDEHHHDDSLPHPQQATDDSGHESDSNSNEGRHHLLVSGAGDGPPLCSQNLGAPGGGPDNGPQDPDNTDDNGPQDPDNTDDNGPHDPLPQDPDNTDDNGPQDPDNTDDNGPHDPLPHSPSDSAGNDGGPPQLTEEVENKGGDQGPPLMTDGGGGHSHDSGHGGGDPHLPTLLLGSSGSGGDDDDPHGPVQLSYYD
Chain of Disintegrin and metalloproteinase domain-containing protein 17 (P78536 whole entry, the tested form may be a part): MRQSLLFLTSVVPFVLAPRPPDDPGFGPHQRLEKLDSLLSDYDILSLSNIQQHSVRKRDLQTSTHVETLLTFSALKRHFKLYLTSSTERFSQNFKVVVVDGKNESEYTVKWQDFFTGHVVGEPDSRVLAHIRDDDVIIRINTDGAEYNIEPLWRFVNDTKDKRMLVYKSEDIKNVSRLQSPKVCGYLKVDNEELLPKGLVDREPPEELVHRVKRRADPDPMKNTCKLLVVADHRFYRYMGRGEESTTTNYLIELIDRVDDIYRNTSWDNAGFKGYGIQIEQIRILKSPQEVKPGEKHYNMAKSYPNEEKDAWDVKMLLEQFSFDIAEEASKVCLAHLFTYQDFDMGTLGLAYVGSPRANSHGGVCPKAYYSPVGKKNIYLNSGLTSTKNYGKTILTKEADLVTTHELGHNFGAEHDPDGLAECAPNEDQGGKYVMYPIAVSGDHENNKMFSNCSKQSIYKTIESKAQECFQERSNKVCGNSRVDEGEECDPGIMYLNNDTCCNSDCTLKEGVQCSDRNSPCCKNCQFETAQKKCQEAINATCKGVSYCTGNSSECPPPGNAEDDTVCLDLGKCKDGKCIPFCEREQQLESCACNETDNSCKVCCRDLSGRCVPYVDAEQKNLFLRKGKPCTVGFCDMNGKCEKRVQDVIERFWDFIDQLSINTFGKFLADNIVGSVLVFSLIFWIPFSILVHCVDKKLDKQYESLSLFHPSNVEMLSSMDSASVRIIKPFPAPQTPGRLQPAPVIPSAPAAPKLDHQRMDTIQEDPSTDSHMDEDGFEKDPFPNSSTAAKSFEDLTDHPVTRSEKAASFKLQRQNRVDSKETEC

Structure (SMILES): CO[C@H]1/C=C\O[C@@]2(C)Oc3c(C)c(O)c4c(O)c(c5c(c4c3C2=O)=NC2(CCN(CC(C)C)CC2)N=5)NC(=O)/C(C)=C\C=C/[C@H](C)[C@H](O)[C@@H](C)[C@@H](O)[C@@H](C)[C@H](OC(C)=O)[C@@H]1C
AC50 (Escherichia coli [1]): 15.9 µM (active)

Structure (SMILES): COc1ccccc1NC(=O)CN(c1ccc(C23CC4CC(CC(C4)C2)C3)cc1)S(C)(=O)=O
IC50 [2]: > 69.5 µM (inactive)
AC50 [3]: 47 µM (active)
AC50 [4]: 8.12 µM (active)
AC50 [5]: 8.59 µM (active)
AC50 (INS1): 4.49 µM (active)
AC50 (CAAX prenyl protease 2): 40.9 µM (active)
AC50 [6]: 4.53 µM (active)
AC50 [7]: 3.45 µM (active)
IC50 [8]: > 69.5 µM (inactive)

Structure (SMILES): CCOC(=O)C(NC(C)=O)(Nc1ccc(F)cc1)C(F)(F)F (centres undefined)
AC50 (Escherichia coli [9]): 36.2 µM (active)
AC50 (Escherichia coli [1]): 74.8 µM (active)

AC50 [10]: 53.1 µM (active)
Structure (SMILES): COCCN1Cc2cccc(C(=O)N3CCN(c4cc(C)ccc4C)CC3)c2C1=O

Structure (SMILES): Cn1ncc(Cl)c1C(=O)NCc1ccc(Cl)cc1
AC50 (Escherichia coli [9]): 22.7 µM (active)

Structure (SMILES): CCCCN(C)CC(O)Cn1cc(/C=C/C(=O)c2cccs2)c2ccccc21 (centres undefined)
AC50 (A-375): 40.9 µM (active)
AC50 [11]: 14.3 µM (active)
EC50 [12]: 10.5 µM (active)
EC50 [13]: 13.4 µM (active)
IC50 (CHO): 14.9 µM (inactive)
